Reference: the supplement of paper PMC13380429

How the values were obtained:
Settings in all cases: 72 h
[1] = tested on: Calu-3; experiment: drug sensitivity score (DSS) for viability; higher = more toxic; extreme values may be limits of the assay
[2] = tested on: HepG2; experiment: as above
[3] = tested on: U2OS; experiment: as above
[4] = tested on: Vero E6; experiment: as above
[5] = tested on: Caco-2; experiment: as above
[6] = tested on: Calu-3; experiment: cell viability relative to DMSO; higher = less toxic
[7] = tested on: HepG2; experiment: as above
[8] = tested on: U2OS; experiment: as above
[9] = tested on: Vero E6; experiment: as above
[10] = tested on: Caco-2; experiment: as above
[11] = tested on: Calu-3; experiment: relative viability EC50 (midpoint between 100% and the lowest measured viability); higher = less toxic
[12] = tested on: HepG2; experiment: as above
[13] = tested on: U2OS; experiment: as above
[14] = tested on: Vero E6; experiment: as above
[15] = tested on: Caco-2; experiment: as above

Structure (SMILES) | drug sensitivity score [1] | drug sensitivity score [2] | drug sensitivity score [3] | drug sensitivity score [4] | drug sensitivity score [5] | cell viability ([6]; 1 nM) [%] | cell viability ([6]; 10 nM) [%] | cell viability ([6]; 100 nM) [%] | cell viability ([6]; 1000 nM) [%] | cell viability ([6]; 10000 nM) [%] | cell viability ([7]; 1 nM) [%] | cell viability ([7]; 10 nM) [%] | cell viability ([7]; 100 nM) [%] | cell viability ([7]; 1000 nM) [%] | cell viability ([7]; 10000 nM) [%] | cell viability ([8]; 1 nM) [%] | cell viability ([8]; 10 nM) [%] | cell viability ([8]; 100 nM) [%] | cell viability ([8]; 1000 nM) [%] | cell viability ([8]; 10000 nM) [%] | cell viability ([9]; 1 nM) [%] | cell viability ([9]; 10 nM) [%] | cell viability ([9]; 100 nM) [%] | cell viability ([9]; 1000 nM) [%] | cell viability ([9]; 10000 nM) [%] | cell viability ([10]; 1 nM) [%] | cell viability ([10]; 10 nM) [%] | cell viability ([10]; 100 nM) [%] | cell viability ([10]; 1000 nM) [%] | cell viability ([10]; 10000 nM) [%] | relative viability EC50 [11] [µM] | relative viability EC50 [12] [µM] | relative viability EC50 [13] [µM] | relative viability EC50 [14] [µM] | relative viability EC50 [15] [µM]
C[N+]1(C)[C@@H]2CC[C@H]1C[C@@H](OC(=O)C(CO)c1ccccc1)C2 (stereo not given in full) [methylatropine-nitrate] | 0 | 0 | 0 | 0 | 0 | 93 | 100 | 108 | 97.2 | 106 | 96.7 | 105 | 102 | 98.7 | 99.8 | 95.4 | 95.4 | 100 | 100 | 101 | 95.6 | 98.8 | 95.3 | 99.1 | 104 | 96.9 | 93.4 | 108 | 104 | 99.6 | > 10 | > 10 | > 10 | > 10 | > 10
C=CC(=O)Nc1cccc(Nc2nc(Nc3ccc(OCCOC)cc3)ncc2F)c1 [AVL-292] | 4.4 | 6.8 | 6.4 | 7.7 | 7.6 | 100 | 106 | 92.2 | 97.2 | 27.2 | 101 | 95.7 | 101 | 80.5 | 29.7 | 100 | 100 | 94.9 | 91.5 | 9 | 96.9 | 94.5 | 94.9 | 82.5 | 11.9 | 85.2 | 90.8 | 102 | 78.3 | 21.5 | 2.87 | 1.47 | 2.39 | 1.74 | 1.47
CCN(c1nc(N)c(C(=O)NC(=N)N)nc1Cl)C(C)C [EIPA] | 0.2 | 1.2 | 0 | 0 | 0 | 92.4 | 104 | 91.9 | 102 | 84.9 | 100 | 97.4 | 101 | 85.6 | 86.5 | 99.7 | 100 | 99.8 | 102 | 93.8 | 103 | 94.2 | 96.2 | 94.2 | 104 | 90.8 | 104 | 101 | 100 | 105 | > 10 | > 10 | > 10 | > 10 | > 10
CCC(=O)N1CCOc2c(cc(-c3ccc(OC)c(OC)c3)cc2OC[C@H]2CCCN(C)C2)C1 [I-CBP-112] | 0.3 | 0.1 | 0 | 0.5 | 0 | 96.6 | 95 | 99.5 | 95.9 | 87.4 | 96.6 | 107 | 87.5 | 104 | 86 | 98.5 | 92 | 95.5 | 95.3 | 97.8 | 105 | 102 | 97.2 | 105 | 78.4 | 101 | 99.9 | 103 | 98.6 | 94.7 | > 10 | > 10 | > 10 | > 10 | > 10
COc1ccc(CNC(=O)c2sc3nc(C)cc(C)c3c2N)cc1 | 0 | 0 | 0 | 0 | 0 | 98.7 | 98.8 | 98.2 | 97.6 | 101 | 83.3 | 94.4 | 93.9 | 91.9 | 107 | 94.1 | 92.1 | 92.5 | 96.4 | 94.7 | 95.8 | 101 | 106 | 93.2 | 94.4 | 95.8 | 96.7 | 93.6 | 97.1 | 93.5 | > 10 | > 10 | > 10 | > 10 | > 10
O=[N+]([O-])c1cccc2c(Br)n[nH]c12 [3-bromo-7-nitroindazole] | 0 | 0 | 0 | 0 | 0 | 102 | 88.4 | 97.3 | 87 | 98.2 | 94.4 | 99 | 98.3 | 97.5 | 102 | 97.6 | 101 | 99 | 104 | 98.8 | 100 | 97.5 | 98.6 | 95.8 | 91.2 | 106 | 102 | 93.8 | 104 | 99.3 | > 10 | > 10 | > 10 | > 10 | > 10
CS(=O)(=O)OC[C@H](O)[C@@H](O)COS(C)(=O)=O [treosulfan] | 0 | 0 | 0 | 0 | 0 | 105 | 104 | 102 | 98.8 | 111 | 93.1 | 93.6 | 94.6 | 108 | 108 | 104 | 94.7 | 103 | 94 | 99.2 | 92.3 | 100 | 92.5 | 98.2 | 106 | 95.6 | 96.4 | 102 | 90.9 | 99.3 | > 10 | > 10 | > 10 | > 10 | > 10
COc1cc(F)c(C(C)C)cc1-c1ccc(C(F)(F)F)cc1CN1C(=O)O[C@H](c2cc(C(F)(F)F)cc(C(F)(F)F)c2)[C@@H]1C [anacetrapib] | 0 | 0 | 0 | 0 | 0 | 97.7 | 97 | 108 | 93.6 | 102 | 108 | 103 | 98.2 | 92.6 | 98.8 | 96.6 | 100 | 101 | 99.8 | 97.7 | 108 | 107 | 97.6 | 102 | 93.2 | 98.1 | 90.8 | 100 | 96.1 | 93.8 | > 10 | > 10 | > 10 | > 10 | > 10
COC1CCN(c2cccc(-c3cc(NC(C)=O)nc(-n4nc(C)cc4C)n3)n2)CC1 [TC-G-1004] | 0 | 5.5 | 0 | 0.1 | 4.8 | 103 | 94.9 | 103 | 91.8 | 93.1 | 84.7 | 101 | 75.3 | 90.9 | 44 | 105 | 97.6 | 104 | 102 | 95 | 103 | 107 | 101 | 104 | 86.7 | 106 | 89.3 | 111 | 96.9 | 20.7 | > 10 | 1.12 | > 10 | > 10 | 2.88
Clc1ccc(CO/N=C(\Cn2ccnc2)c2ccc(Cl)cc2Cl)c(Cl)c1 [oxiconazole] | 0 | 0 | 0 | 0 | 1.1 | 97.5 | 87.3 | 83.4 | 94.8 | 103 | 97.4 | 103 | 105 | 98.5 | 89.7 | 100 | 97.3 | 97.6 | 91.1 | 92 | 99.9 | 105 | 95.4 | 102 | 95.5 | 106 | 94.8 | 99.8 | 90 | 83.5 | > 10 | > 10 | > 10 | > 10 | > 10
CS(=O)(=O)Oc1ccc2c(NC(N)=O)c(C(=O)c3ccc(Cl)cc3Cl)oc2c1 [lirimilast] | 0 | 0 | 0 | 0 | 0 | 98.8 | 106 | 91.4 | 101 | 104 | 94.3 | 89.7 | 106 | 94.7 | 95.9 | 95.5 | 99 | 97.9 | 107 | 102 | 98.6 | 94.7 | 97 | 84.4 | 99.6 | 98.5 | 96.3 | 102 | 108 | 110 | > 10 | > 10 | > 10 | > 10 | > 10
NC(=O)N1c2ccccc2C=Cc2ccccc21 [carbamazepine] | 0 | 0 | 0 | 0 | 0 | 91.2 | 91.9 | 90.3 | 98.4 | 98.9 | 107 | 110 | 88.9 | 98.6 | 101 | 101 | 97.2 | 101 | 96.4 | 104 | 106 | 98.4 | 98.8 | 95.1 | 95.7 | 104 | 96.9 | 98.5 | 97.2 | 102 | > 10 | > 10 | > 10 | > 10 | > 10
Nc1cc(C(F)(F)F)c(-c2nc(N3CCOCC3)nc(N3CCOCC3)n2)cn1 [PI3K-IN-2] | 12.4 | 9.1 | 5.9 | 7.8 | 9.1 | 88.3 | 102 | 78.1 | 48 | 21.4 | 124 | 106 | 101 | 59.4 | 25.1 | 103 | 106 | 99 | 89.7 | 24.5 | 106 | 106 | 105 | 70 | 30 | 107 | 106 | 97.7 | 63.3 | 17.1 | 0.376 | 0.935 | 2.07 | 1.12 | 1.12
O=C(NNc1nc2cc(F)ccc2n2cccc12)c1cnccn1 [SC-144] | 18.1 | 15.3 | 12.5 | 12.6 | 20 | 102 | 95.9 | 93.3 | 6 | 3.9 | 96 | 98.3 | 101 | 15.2 | 20.2 | 104 | 99.3 | 91.8 | 40.1 | 15.9 | 97.1 | 100 | 82.7 | 43.6 | 21.9 | 93.3 | 101 | 80.4 | 6.6 | 13.8 | 0.27 | 0.323 | 0.513 | 0.368 | 0.17
